Test results: patent US7179840B2, “Furancarboxamides” (Bayer CropScience AG, priority 2002, dated 2007)

Legend:
[1] = system: Pyrenophora teres; test: Pyrenophora teres Test (Barley)/Protective; assay type: in vivo; settings: protective, application rate 500 g/ha, evaluation 7 days after inoculation
Method: Pyrenophora teres Test (Barley)/Protective
(§1) To produce a suitable preparation of active compound, 1 part by weight of active compound is mixed with the stated amounts of solvent and emulsifier, and the concentrate is diluted with water to the desired concentration.
To test for protective activity, young plants are sprayed with the preparation of active compound at the stated application rate. After the spray coating has dried on, the plants are sprayed with a conidia suspension of Pyrenophora teres. The plants remain in an incubation cabin at 20° C. and 100% relative atmospheric humidity for 48 h. The plants are then placed in a greenhouse at a temperature of about 20° C. and a relative atmospheric humidity of about 80%.
(§2) Evaluation is carried out 7 days after the inoculation. 0% means an efficacy which corresponds to that of the control, whereas efficacy of 100% means that no infection is observed.

[2] = system: Podosphaera leucotricha; test: Podosphaera Test (Apple)/Protective; assay type: in vivo; settings: 240 h, protective, application rate 100 g/ha, evaluation 10 days after inoculation, read-out: Efficacy in %
Method: Podosphaera Test (Apple)/Protective
as §1
To test for protective activity, young plants are sprayed with the preparation of active compound at the stated application rate. After the spray coating has dried on, the plants are inoculated with an aqueous spore suspension of the apple mildew pathogen Podosphaera leucotricha. The plants are then placed in a greenhouse at about 23° C. and a relative atmospheric humidity of about 70%.
(§3) Evaluation is carried out 10 days after the inoculation. 0% means an efficacy which corresponds to that of the control, whereas efficacy of 100% means that no infection is observed.

[3] = logP determination by HPLC (reversed-phase C18), acidic range; assay type: physicochemical; settings: pH 2.3, C18, 43° C., 0.1% aqueous phosphoric acid/acetonitrile
Method: The logP values given in the Preparation Examples were determined in accordance with EEC Directive 79/831 Annex V.A8 by HPLC (High Performance Liquid Chromatography) using a reversed-phase column (C 18). Temperature: 43° C.
Mobile phases for the determination in the acidic range: 0.1% aqueous phosphoric acid, acetonitrile; linear gradient from 10% acetonitrile to 90% acetonitrile.
Calibration was carried out using unbranched alkan-2-ones (having 3 to 16 carbon atoms) with known logP values (determination of the logP values by the retention times using linear interpolation between two successive alkanones).

[4] = system: Venturia inaequalis; test: Venturia Test (Apple)/Protective; assay type: in vivo; settings: 240 h, protective, application rate 100 g/ha, evaluation 10 days after inoculation, read-out: Efficacy in %
Method: Venturia Test (Apple)/Protective
as §1
To test for protective activity, young plants are sprayed with the preparation of active compound at the stated application rate. After the spray coating has dried on, the plants are inoculated with an aqueous conidia suspension of the apple scab pathogen Venturia inaequalis and then remained in an incubation cabin at about 20° C. and 100% relative atmospheric humidity for 1 day.
The plants are then placed in a greenhouse at about 21° C. and a relative atmospheric humidity of about 90%.
as §3

[5] = system: Alternaria solani; test: Alternaria Test (Tomato)/Protective; assay type: in vivo; settings: 48 h, protective, application rate 100 g/ha, evaluation 2 days after inoculation, read-out: Efficacy in %
Method: Alternaria Test (Tomato)/Protective
as §1
To test for protective activity, young tomato plants are sprayed with the preparation of active compound at the stated application rate. 1 day after the treatment, the plants are inoculated with an aqueous spore suspension of Alternaria solani. The plants are then placed in an incubation cabin at about 20° C. and 100% relative atmospheric humidity.
Evaluation is carried out 2 days after the inoculation. 0% means an efficacy which corresponds to that of the control, whereas efficacy of 100% means that no infection is observed.

[6] = system: Sphaerotheca fuliginea; test: Sphaerotheca Test (Cucumber)/Protective; assay type: in vivo; settings: protective, application rate 750 g/ha, evaluation 7 days after inoculation
Method: Sphaerotheca Test (Cucumber)/Protective
as §1
To test for protective activity, young cucumber plants are sprayed with the preparation of active compound at the stated application rate. 1 day after the treatment, the plants are inoculated with a spore suspension of Sphaerotheca fuliginea. The plants are then placed in a greenhouse at 70% relative atmospheric humidity and temperature of 23° C.
as §2

chromatographic logP ([3]; reversed-phase C18 HPLC column)	Structure (SMILES)	Efficacy in % [1] [%]	pest or weed control at 100 g/ha [2] [%]	chromatographic logP [3]	pest or weed control at 100 g/ha [4] [%]	pest or weed control at 100 g/ha [5] [%]	Efficacy in % [6] [%]
–	Cc1occc1C(=O)Nc1ccccc1-c1ccc(Cl)c(Cl)c1 [Example 15]	90	100	3.73	100	96	–
–	Cc1occc1C(=O)Nc1ccccc1-c1ccc(F)c(Cl)c1 [Example 10]	–	100	3.46	100	95	–
–	Cc1occc1C(=O)Nc1ccccc1-c1ccc(F)c(F)c1 [Example 8]	–	85	3.22	100	82	–
–	Cc1occc1C(=O)Nc1ccccc1-c1ccc(C(F)(F)F)cc1 [Example 3]	–	93	3.53	100	100	100
–	Cc1occc1C(=O)Nc1ccccc1-c1cccc(Cl)c1 [Example 4]	–	100	3.58	100	98	95
3.38	Cc1occc1C(=O)Nc1ccccc1-c1ccc(Cl)cc1F [Example 1, N-(4′-chloro-2′-fluoro-1,1′-biphenyl-2-yl)-2-methyl-3-furamide]	–	–	–	–	–	–
–	Cc1occc1C(=O)Nc1ccccc1-c1ccc(Br)cc1 [Example 2]	–	–	3.71	100	100	90
–	Cc1occc1C(=O)Nc1ccccc1-c1cc(Cl)cc(Cl)c1 [Example 16]	–	–	3.9	–	–	90
–	Cc1occc1C(=O)Nc1ccccc1-c1ccc(Cl)c(F)c1 [Example 9]	–	97	3.43	100	100	–
–	CSc1ccc(-c2ccccc2NC(=O)c2ccoc2C)cc1 [Example 6]	–	92	3.63	100	95	–
–	Cc1occc1C(=O)Nc1ccccc1-c1ccc(OC(F)(F)F)cc1 [Example 5]	–	93	3.91	100	92	–
